{"source": "patent US20110237566A1", "about": "“Therapeutic Macrolide Compounds and Their Use” (MERLION PHARMACEUTICALS PTE LTD, priority 2008, published 2011)", "key": {"[1]": {"test_system": "COLO205 human colon adenocarcinoma cell", "assay": "Growth inhibition (cytotoxicity), COLO205 assay, Cell Titer Glo", "type": "cell-based", "conditions": "COLO 205, 72 h, COLO205 cells, 72 hour incubation", "protocol": "(§1) The cytotoxicity of each of the MC compounds as described herein was evaluated in the following cell types: A549 human alveolar epithelial cell, PC3 human prostate carcinoma cell, COLO205 human colon adenocarcinoma cell, HEPG2 human hepatoma, OVCAR3 human ovary adenocarcinoma cell, and HL60 human acute myelocytic leukemia (AML) cell.\n(§2) A549, PC3, COLO205 and HEPG2 cells were cultured in DMEM (Invitrogen Corporation) with 10% fetal bovine serum, whereas OVCAR3 and HL60 were cultured in the same medium but with 20% fetal bovine serum. For cytotoxocoty measurements the cells were seeded in 96 or 384 well tissue culture treated microtitre plates overnight. Compounds were diluted in appropriate buffers and added to the cells the next day. Following a further 72 hour incubation, cell viability was determined using Cell Titer Glo (Promega Corporation) according to the manufacturers' instructions, and the luminescence measured in Luminoskan Ascent (Thermo Fisher Scientific Inc.)."}, "[2]": {"test_system": "HL60 human acute myelocytic leukemia (AML) cell", "assay": "Growth inhibition (cytotoxicity), HL60A assay, Cell Titer Glo", "type": "cell-based", "conditions": "HL-60, 72 h, HL60 cells, 72 hour incubation", "protocol": "as §1, §2"}, "[3]": {"test_system": "OVCAR3 human ovary adenocarcinoma cell", "assay": "Growth inhibition (cytotoxicity), OVCAR3 assay, Cell Titer Glo", "type": "cell-based", "conditions": "OVCAR3 cells, 72 hour incubation", "protocol": "as §1, §2"}, "[4]": {"test_system": "PC3 human prostate carcinoma cell", "assay": "Growth inhibition (cytotoxicity), PC3A assay, Cell Titer Glo", "type": "cell-based", "conditions": "PC-3, 72 h, PC3 cells, 72 hour incubation", "protocol": "as §1, §2"}, "[5]": {"assay": "Microsomal stability assay", "type": "in vitro ADME", "conditions": "human, human liver microsomes, pH 7.4, human liver microsomes, 50 μm, 37° C.; read-out: T1/2, 50 μm microsomal stability assay", "protocol": "50 μL test sample (50 mM), 25 μL human liver microsomes (20 mg/ml, BD Gentest, catalog no. 452161), 281 μL potassium phosphate buffer (100 mM, pH 7.4), 5 μL NaDPH regenerating system, solution B (BD Biosciences, catalog no. 451200), and 114 μL of water were pre-incubated for 5 min at 37° C. The reaction was initiated by the addition of 25 μL NaDPH regenerating system, solution A (BD Biosciences, catalog no. 451220). After an incubation period of 0, 15, 30, and 60 min at 37° C., 100 μL of the reaction mixture was transferred to an eppendorf tube, followed by addition of 100 μL chilled acetonitrile to quench the reaction. The sample was then centrifuged at 14,000 rpm for 5 min. The supernatant was submitted for LCMS analysis."}, "[6]": {"test_system": "A549 human alveolar epithelial cell", "assay": "Growth inhibition (cytotoxicity), A549 assay, Cell Titer Glo", "type": "cell-based", "conditions": "A549, 72 h, A549 cells, 72 hour incubation", "protocol": "as §1, §2"}, "[7]": {"test_system": "HEPG2 human hepatoma", "assay": "Growth inhibition (cytotoxicity), HEPG2A assay, Cell Titer Glo", "type": "cell-based", "conditions": "HEPG2 cells, 72 hour incubation", "protocol": "as §1, §2"}}, "data": [{"compound": "CC[C@H](OC)[C@@H](C)[C@H]1O[C@@H]1C(NCc1ccc(F)cc1)C(C)(O)/C=C/C=C(\\C)C1OC(=O)C[C@H](O)CC[C@@](C)(O)[C@@H](OC(C)=O)/C=C/[C@@H]1C.O=CO", "note": "(single isomer, unassigned) [MC-006c]", "values": [{"measurement": "IC50", "setting": "[1]", "result": "≤ 100", "unit": "nM"}, {"measurement": "IC50", "setting": "[2]", "result": "≤ 100", "unit": "nM"}, {"measurement": "IC50", "setting": "[3]; Homo sapiens, OVCAR-3, 72 h", "result": "≤ 100", "unit": "nM"}, {"measurement": "IC50", "setting": "[4]", "result": "≤ 100", "unit": "nM"}, {"measurement": "half-life at 50 μM", "setting": "[5]", "result": "> 30", "unit": "min"}]}, {"compound": "CC[C@H](OC)[C@@H](C)[C@H]1O[C@@H]1C(NCc1ccncc1)C(C)(O)/C=C/C=C(\\C)C1OC(=O)C[C@H](O)CC[C@@](C)(O)[C@@H](OC(C)=O)/C=C/[C@@H]1C", "note": "(single isomer, unassigned) [MC-007b]", "values": [{"measurement": "IC50", "setting": "[6]", "result": "≤ 1000", "unit": "nM"}, {"measurement": "IC50", "setting": "[2]", "result": "≤ 100", "unit": "nM"}]}, {"compound": "CC[C@H](OC)[C@@H](C)[C@H]1O[C@@H]1C(NCc1ccc(Cl)cc1)C(C)(O)/C=C/C=C(\\C)C1OC(=O)C[C@H](O)CC[C@@](C)(O)[C@@H](OC(C)=O)/C=C/[C@@H]1C", "note": "(single isomer, unassigned) [MC-016a]", "values": [{"measurement": "IC50", "setting": "[1]", "result": "≤ 100", "unit": "nM"}, {"measurement": "IC50", "setting": "[7]; Homo sapiens, HepG2, 72 h", "result": "≤ 100", "unit": "nM"}, {"measurement": "IC50", "setting": "[2]", "result": "≤ 100", "unit": "nM"}, {"measurement": "IC50", "setting": "[3]; Homo sapiens, OVCAR-3, 72 h", "result": "≤ 100", "unit": "nM"}, {"measurement": "IC50", "setting": "[4]", "result": "≤ 100", "unit": "nM"}]}, {"compound": "CC[C@H](OC)[C@@H](C)[C@H]1O[C@@H]1C(NCc1ccc(OC)cc1)C(C)(O)/C=C/C=C(\\C)C1OC(=O)C[C@H](O)CC[C@@](C)(O)[C@@H](OC(C)=O)/C=C/[C@@H]1C", "note": "(stereo partly drawn) [MC-005]", "values": [{"measurement": "IC50", "setting": "[7]", "result": 57, "unit": "nM"}, {"measurement": "IC50", "setting": "[7]; Homo sapiens, HepG2, 72 h", "result": "≤ 100", "unit": "nM"}, {"measurement": "IC50", "setting": "[3]; Homo sapiens, OVCAR-3, 72 h", "result": "≤ 100", "unit": "nM"}, {"measurement": "IC50", "setting": "[3]", "result": 61, "unit": "nM"}, {"measurement": "half-life at 50 μM", "setting": "[5]", "result": 20, "unit": "min"}]}, {"compound": "CC[C@H](OC)[C@@H](C)[C@H]1O[C@@H]1C(NCc1ccncc1)C(C)(O)/C=C/C=C(\\C)C1OC(=O)C[C@H](O)CC[C@@](C)(O)[C@@H](OC(C)=O)/C=C/[C@@H]1C", "note": "(stereo partly drawn) [MC-007c]", "values": [{"measurement": "IC50", "setting": "[6]", "result": "≤ 1000", "unit": "nM"}, {"measurement": "IC50", "setting": "[1]", "result": "≤ 100", "unit": "nM"}, {"measurement": "IC50", "setting": "[2]", "result": "≤ 100", "unit": "nM"}]}, {"compound": "CC[C@H](OC)[C@@H](C)[C@H]1O[C@@H]1C(NCc1ccc(Cl)c(Cl)c1)C(C)(O)/C=C/C=C(\\C)C1OC(=O)C[C@H](O)CC[C@@](C)(O)[C@@H](OC(C)=O)/C=C/[C@@H]1C", "note": "(stereo partly drawn) [MC-059]", "values": [{"measurement": "IC50", "setting": "[1]", "result": "≤ 100", "unit": "nM"}, {"measurement": "IC50", "setting": "[7]; Homo sapiens, HepG2, 72 h", "result": "≤ 100", "unit": "nM"}, {"measurement": "IC50", "setting": "[3]; Homo sapiens, OVCAR-3, 72 h", "result": "≤ 100", "unit": "nM"}, {"measurement": "IC50", "setting": "[4]", "result": "≤ 100", "unit": "nM"}]}]}
